The assay deals with KK-Ay male mice. As to the kind of experiment: Blood sugar and blood triglyceride (TG) lowering test in KK-Ay mice, test compound mixed with powder food. In kind it is in vivo. The source says:
The effect of the compound of the present invention on reducing blood sugar and blood lipid levels based on the ability of improving insulin resistance has been determined by the following test.
KK-Ay male mice of five to six week age were obtained from Nihon CREA. The mice have been bred with a powder feed (MF powders for breeding rats and mice, Oriental Yeast Co.) from 7 days prior to the test. The mice of nine to eighteen week age having body weights of 35 g or more were used for the test.
The blood sugar values were measured by withdrawing blood (20 µl) from animal's tail vein using a heparin-treated capillary, centrifuging the blood to obtain plasma, and measuring the glucose level in the plasma by the glucose-oxidase method. The triglyceride (TG) levels in plasma were measured by the glycerol enzyme method. Five mice in a group having 200 mg/dl or more of the blood sugar level were used for one test.
The test compounds were mixed with powder food such that the average dosage of the former is 10 - 100 mg/kg/day, and the mixture was administered to the mice for four days. Blood was withdrawn from the animal's tail vein before administration, and five days after administration, and blood sugar and TG levels were measured using the methods mentioned above. The amount of the food ingested was measured every day during the test period, and the average of the amounts for four days was calculated.
The ability of reducing blood sugar level was determined as described below. Namely, the means of the blood sugar values at the time before administration of the test compound in a control group (a group to which the test compound was not administered) and an administration group (a group to which the test compound was administered) (such values are referred to as Mcon and Mad, respectively) and the means of the blood sugar values of the control group and the administration group on 5th day after administration (such values are referred to as Con and Ad, respectively) were determined. The blood sugar lowering effect found in the administration group was expressed by the following formula. Blood sugar lowering effect(%) = 1-(Ad/Mad)/(Con/Mcon)x100 [formula]
The blood TG lowering ratio (%) was measured by the same procedure as that described above. All the values were statistically evaluated under significance level P=0.05.

[1] abbreviates: KK-Ay male mice; mixed with powder food for four days; footnote a): Dose c.a. 100 mg/kg/day, plasma triglyceride (glycerol enzyme method) on 5th day vs control group.
The mark [2] stands for this setting: KK-Ay male mice, mixed with powder food for four days, Dose: c.a. 10 mg/kg/day, plasma triglyceride (glycerol enzyme method) on 5th day vs control group.
Setting [3] is: KK-Ay male mice, dose c.a. 50 mg/kg/day mixed with powder food for four days, plasma triglyceride 5th day, vs control group.
[4] abbreviates: KK-Ay male mice, dose c.a. 30 mg/kg/day (footnote a) mixed with powder food for four days, plasma triglyceride 5th day, vs control group.

Marks after values point to notes of the source that are not given here.

As for `Cc1c(C)c2c(c(C)c1O)CCC(C)(COc1ccc(CC3SC(=O)NC3=O)cc1)O2` (stereo not drawn) [CS-045, reference compound], the “TG lowering ratio (%)” value under setting [1] was -18.5%.
As to `O=C1NC(=O)C(Cc2ccc3cc(OCc4ccc(Cl)cc4)ccc3c2)S1` (stereo not drawn) [Example 8], the “TG lowering ratio (%)” value under setting [2] was 9.4%.
In the case of `O=C1NC(=O)C(Cc2ccc3cc(OCc4ccccc4F)ccc3c2)S1` (stereo not drawn) [Example 4, 5-[6-(2-fluorobenzyloxy)-2-naphthyl]-methyl-thiazolidine-2,4-dione], the “TG lowering ratio (%)” value under setting [2] is on record as 41.6* %.
For `O=C1NC(=O)C(Cc2ccc3cc(OCc4ccccn4)ccc3c2)S1` (stereo not drawn) [Example 1, 5-[6-(2-pyridylmethyloxy)-2-naphthyl]-methyl-thiazolidine-2,4-dione], under setting [1], the “TG lowering ratio (%)” value worked out at 56.4%.
Take `O=C1NC(=O)C(=Cc2ccc3cc(OCc4ccc(Cl)cc4)ccc3c2)S1` [compound 19]: the “TG lowering ratio (%)” value under setting [3] is 21.7%.
With `O=C1NC(=O)C(=Cc2ccc3cc(OCc4ccccc4F)ccc3c2)S1` [Example 15, 5-[6-(2-fluorobenzyloxy)-2-naphthyl]-methylene-thiazolidine-2,4-dione], the “TG lowering ratio (%)” value under setting [4] was 38.8%.
Consider `Cc1ccccc1COc1ccc2cc(C=C3SC(=O)NC3=O)ccc2c1` [compound 22], for which the “TG lowering ratio (%)” value under setting [3] was found to be 9.5%.
Still for that read-out and setting: under `O=C1NC(=O)C(=Cc2ccc3cc(OCc4ccccc4Cl)ccc3c2)S1` [compound 18] stands 53.8* %; under `O=C1NC(=O)C(=Cc2ccc3cc(OCc4ccccc4[N+](=O)[O-])ccc3c2)S1` [compound 33], 16.0%.
For the compound `O=C1NC(=O)C(Cc2ccc3cc(Oc4ccccc4)ccc3c2)S1` (stereo not drawn) [Example 3], the “TG lowering ratio (%)” value under setting [1] worked out at 31.3%.
For the compound `O=C1NC(=O)C(=Cc2ccc3cc(OCc4ccc(F)cc4)ccc3c2)S1` [compound 17], under setting [4], the “TG lowering ratio (%)” value is given as 24.4%.
Same read-out and setting: to `O=C1NC(=O)C(=Cc2ccc3cc(OCc4cccc(F)c4)ccc3c2)S1` [compound 16] belongs 22.3%.
On to `COC(=O)c1ccc(COc2ccc3cc(C=C4SC(=O)NC4=O)ccc3c2)cc1` [compound 39], for which the “TG lowering ratio (%)” value under setting [3] was found to be 16.0%.
As for `O=C1NC(=O)C(=Cc2ccc3cc(OCc4ccc(C(F)(F)F)cc4)ccc3c2)S1` [compound 48], under setting [3], the “TG lowering ratio (%)” value is 25.6%.
With `O=C1NC(=O)C(=Cc2ccc3cc(OCc4c(F)cccc4F)ccc3c2)S1` [compound 49], under setting [4], the “TG lowering ratio (%)” value was 43.4*** %.
As for `CCc1ccc(CCOc2ccc(CC3SC(=O)NC3=O)cc2)nc1` (stereo not drawn) [Pioglitazone, pioglitazone, reference compound], the “TG lowering ratio (%)” value under setting [2] was -4.0%.
In the case of `O=C1NC(=O)C(=Cc2ccc3cc(OCc4c(F)cccc4C(F)(F)F)ccc3c2)S1` [compound 50], the “TG lowering ratio (%)” value under setting [4] is recorded as 27.7** %.
`O=C1NC(=O)C(Cc2ccc3cc(OCc4ccccc4C(F)(F)F)ccc3c2)S1` (stereo not drawn) [Example 10]: under setting [2], the “TG lowering ratio (%)” value came out at 37.2%.
As to `O=C1NC(=O)C(=Cc2ccc3cc(OCc4ccccc4)ccc3c2)S1` [Example 13, 5-(6-benzyloxy-2-naphthyl)-methylene-thiazolidine-2,4-dione], the “TG lowering ratio (%)” value under setting [4] worked out at 21.0%.
As to `O=C1NC(=O)C(=Cc2ccc3cc(OCc4ccc(Br)cc4)ccc3c2)S1` [compound 21], the “TG lowering ratio (%)” value under setting [3] turned out to be 14.7%.
Take `O=C1NC(=O)C(Cc2ccc3cc(OCc4ccc(F)cc4)ccc3c2)S1` (stereo not drawn) [Example 6]: the “TG lowering ratio (%)” value under setting [2] was 37.7* %.
Take `O=C1NC(=O)C(=Cc2ccc3cc(OCc4ccccc4C(F)(F)F)ccc3c2)S1` [compound 46]: the “TG lowering ratio (%)” value under setting [3] is given as 51.0** %.
Take `O=C1NC(=O)C(=Cc2ccc3cc(OCCc4ccccc4)ccc3c2)S1` [compound 14]: the “TG lowering ratio (%)” value (KK-Ay male mice, dose c.a. 100 mg/kg/day (footnote b) mixed with powder food for four days, plasma triglyceride 5th day, vs control group) is 19.9%.
In the case of `O=C1NC(=O)C(Cc2ccc3cc(OCc4ccccc4Cl)ccc3c2)S1` (stereo not drawn) [Example 7], the “TG lowering ratio (%)” value under setting [2] is reported as 28.3%.
`O=C1NC(=O)C(=Cc2ccc3cc(OCc4ccc([N+](=O)[O-])cc4)ccc3c2)S1` [compound 35]: under setting [3], the “TG lowering ratio (%)” value turned out to be 56.9%.
For `O=C1NC(=O)C(Cc2ccc3cc(OCc4ccccc4)ccc3c2)S1` (stereo not drawn) [Example 2], under setting [2], the “TG lowering ratio (%)” value was 9.1* %.
Turning to `N#Cc1ccc(COc2ccc3cc(C=C4SC(=O)NC4=O)ccc3c2)cc1` [compound 32], the “TG lowering ratio (%)” value under setting [3] is on record as 39.6* %.

The values are drawn from EP0604983B1, “Naphthalene derivatives” (Mitsubishi Chemical Corporation, priority 1992, dated 1994).
